# Laboratory results: ChEMBL document CHEMBL1201862, “PubChem BioAssay data set” (2004)
#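 Five compound concentrations were applied to cells in 96-well plates for 48 hours; endpoints were derived by simple linear interpolation of the resulting dose-response curve. GI50: concentration for 50% inhibition of growth.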 Calls of active or inactive are those of the source. Cut-off read from the data, not from the text of the source: active = GI50 up to about 1.1 µM and inactive = higher.
# Experiments:
# Assay in all cases: NCI tumour cell line growth inhibition, 48 h
# RPMI-8226 = test system: RPMI-8226
# OVCAR-5 = test system: OVCAR-5
# MDA-MB-435 = test system: MDA-MB-435
# M14 = test system: M14
# RXF 393 = test system: RXF 393
# ACHN = test system: ACHN
# COLO 205 = test system: COLO 205
# BT-549 = test system: BT-549
# PC-3 = test system: PC-3
# SNB-75 = test system: SNB-75
# HCT-15 = test system: HCT-15
# HCT-116 = test system: HCT-116
# UACC-257 = test system: UACC-257
# A549 = test system: A549
# UACC-62 = test system: UACC-62
# SK-OV-3 = test system: SK-OV-3
# HL-60 = test system: HL-60
# NCI-H522 = test system: NCI-H522
# Malme-3M = test system: Malme-3M
Structure (SMILES),GI50 (RPMI-8226),GI50 (OVCAR-5),GI50 (MDA-MB-435),GI50 (M14),GI50 (RXF 393),GI50 (ACHN),GI50 (COLO 205),GI50 (BT-549),GI50 (PC-3),GI50 (SNB-75),GI50 (HCT-15) [µM],GI50 (HCT-116),GI50 (UACC-257),GI50 (A549),GI50 (UACC-62),GI50 (SK-OV-3),GI50 (HL-60),GI50 (NCI-H522),GI50 (Malme-3M)
COc1ccc(/C=C2\N=C(SC)N(C)C2=O)cc1,50 µM (inactive),95.7 µM (inactive),51.4 µM (inactive),82.6 µM (inactive),> 100 µM (inactive),38.8 µM (inactive),94.6 µM (inactive),> 100 µM (inactive),40.9 µM (inactive),41.6 µM (inactive),64.3,75.2 µM (inactive),> 100 µM (inactive),63.2 µM (inactive),70.3 µM (inactive),97.9 µM (inactive),27.5 µM (inactive),–,–
COC1=CC23CCCN2CCc2cc4c(cc2C3C1O)OCO4 (stereo unspecified),–,> 100 µM (inactive),> 100 µM (inactive),> 100 µM (inactive),–,22.3 µM (inactive),24.5 µM (inactive),> 100 µM (inactive),59.3 µM (inactive),78.2 µM (inactive),41.8,44.5 µM (inactive),> 100 µM (inactive),36.4 µM (inactive),> 100 µM (inactive),27 µM (inactive),25.8 µM (inactive),29.2 µM (inactive),43 µM (inactive)
Cc1c(C)c(C)c(-n2c(=O)n(C)c(=O)n2C(C)(C)C)c(C)c1C,89.5 µM (inactive),> 100 µM (inactive),> 100 µM (inactive),> 100 µM (inactive),> 100 µM (inactive),> 100 µM (inactive),> 100 µM (inactive),> 100 µM (inactive),> 100 µM (inactive),> 100 µM (inactive),> 100,> 100 µM (inactive),> 100 µM (inactive),> 100 µM (inactive),> 100 µM (inactive),> 100 µM (inactive),40.3 µM (inactive),–,–
CCOc1snc(C(Cl)(Cl)Cl)c1Cl,15.5 µM (inactive),> 100 µM (inactive),18.3 µM (inactive),29 µM (inactive),13.6 µM (inactive),7.85 µM (inactive),18.8 µM (inactive),10.7 µM (inactive),28.4 µM (inactive),17.7 µM (inactive),24.2,17.3 µM (inactive),14.3 µM (inactive),17.5 µM (inactive),19.4 µM (inactive),28.6 µM (inactive),13.2 µM (inactive),–,22.2 µM (inactive)
CC(CO)(CO)N1C(=O)C2C3c4ccccc4C(c4ccccc43)C2C1=O (stereo unspecified),–,> 100 µM (inactive),> 100 µM (inactive),> 100 µM (inactive),–,> 100 µM (inactive),> 100 µM (inactive),80.9 µM (inactive),> 100 µM (inactive),25.4 µM (inactive),> 100,> 100 µM (inactive),> 100 µM (inactive),> 100 µM (inactive),> 100 µM (inactive),> 100 µM (inactive),> 100 µM (inactive),> 100 µM (inactive),> 100 µM (inactive)
Cc1ccccc1NC(=O)C(=O)Cc1cnc2ccccc2n1,> 100 µM (inactive),> 100 µM (inactive),> 100 µM (inactive),> 100 µM (inactive),–,> 100 µM (inactive),> 100 µM (inactive),> 100 µM (inactive),> 100 µM (inactive),–,> 100,> 100 µM (inactive),> 100 µM (inactive),> 100 µM (inactive),> 100 µM (inactive),> 100 µM (inactive),> 100 µM (inactive),> 100 µM (inactive),> 100 µM (inactive)
C=C(C1=CC(=O)C(C)(C)O1)[C@@H]1CC=C([C@@H]2CC[C@H]3[C@@]2(C)CC[C@H]2C(C)(C)C(=O)[C@H](O)C[C@]32C)[C@H](O)O1,0.342 µM (active),13.7 µM (inactive),2.49 µM (inactive),1.58 µM (inactive),1.81 µM (inactive),1.66 µM (inactive),1.8 µM (inactive),5.38 µM (inactive),1.31 µM (inactive),10.6 µM (inactive),2.04,1.63 µM (inactive),1.97 µM (inactive),13.6 µM (inactive),4.88 µM (inactive),14.6 µM (inactive),2.24 µM (inactive),–,2.35 µM (inactive)
CCN(CC)CCCC(C)NC(=O)c1cc(-c2nccn2C)nc2ccc(C)cc12 (stereo unspecified),> 100 µM (inactive),> 100 µM (inactive),> 100 µM (inactive),> 100 µM (inactive),> 100 µM (inactive),> 100 µM (inactive),> 100 µM (inactive),> 100 µM (inactive),> 100 µM (inactive),> 100 µM (inactive),> 100,> 100 µM (inactive),> 100 µM (inactive),> 100 µM (inactive),> 100 µM (inactive),–,> 100 µM (inactive),–,> 100 µM (inactive)
OCCN=C1c2ccccc2C2C(c3ccccc31)C1c3ccccc3C(=NCCO)c3ccccc3C21 (stereo unspecified),13.6 µM (inactive),19.6 µM (inactive),18 µM (inactive),20.1 µM (inactive),22.8 µM (inactive),23.6 µM (inactive),15.6 µM (inactive),23.6 µM (inactive),17.2 µM (inactive),20.4 µM (inactive),17.4,15.5 µM (inactive),24.7 µM (inactive),20.6 µM (inactive),15.3 µM (inactive),22.2 µM (inactive),13.9 µM (inactive),–,32.4 µM (inactive)
N#Cc1c(-c2ccc(Cl)cc2Cl)nc2[nH]nc(S)n2c1=O,> 100 µM (inactive),> 100 µM (inactive),> 100 µM (inactive),> 100 µM (inactive),> 100 µM (inactive),> 100 µM (inactive),> 100 µM (inactive),> 100 µM (inactive),> 100 µM (inactive),–,> 100,> 100 µM (inactive),> 100 µM (inactive),> 100 µM (inactive),> 100 µM (inactive),> 100 µM (inactive),> 100 µM (inactive),> 100 µM (inactive),> 100 µM (inactive)
COc1ccc(-n2c3c(c4cc(O)ccc42)Cc2ccccc2C3=O)cc1,3.76 µM (inactive),–,64.6 µM (inactive),38.2 µM (inactive),< 0.01 µM (active),–,11.7 µM (inactive),> 100 µM (inactive),2.2 µM (inactive),2.19 µM (inactive),25.1,27.6 µM (inactive),> 100 µM (inactive),35.6 µM (inactive),48.5 µM (inactive),16 µM (inactive),> 100 µM (inactive),–,> 100 µM (inactive)
O=C1Cc2c([nH]c3ccc(C(=O)O)cc23)-c2ccccc2N1,> 100 µM (inactive),6.79 µM (inactive),> 100 µM (inactive),> 100 µM (inactive),–,> 100 µM (inactive),> 100 µM (inactive),> 100 µM (inactive),> 100 µM (inactive),–,> 100,> 100 µM (inactive),> 100 µM (inactive),> 100 µM (inactive),> 100 µM (inactive),> 100 µM (inactive),37.5 µM (inactive),–,> 100 µM (inactive)
